Experimental data taken from ChEMBL document CHEMBL5120836, “Discovery of novel 7,8-dihydropteridine-6(5H)-one-based DNA-PK inhibitors as potential anticancer agents via scaffold hopping strategy” (Eur J Med Chem, 2022).
≈ marks a conversion by molar mass, not a printed value. Calls of active or inactive are those of the source. The rule behind the calls is not given here.

Tests used:
MDA-MB-231 [1] = assay: Synergistic antiproliferative activity against human MDA-MB-231 cells assessed as combination index at 0.5 uM in presence of 0.1 uM doxorubicin by MTT assay; assay type: functional
[2] = Toxicity in BALB/c nude mouse xenografted with human HL-60 cells assessed as effect on body weight at 100 mg/kg, po qd for 16 days; assay type: organism-based; conditions: in vivo, 384 h, time 16 day
[3] = MRT (0 to infinity) in Sprague-Dawley rat at 5 mg/kg, po; assay type: ADME, organism-based; conditions: in vivo
[4] = Plasma protein binding in human assessed as free fraction; assay type: ADME, cell-free
MDA-MB-231 [5] = assay: Synergistic antiproliferative activity against human MDA-MB-231 cells assessed as combination index at 12.5 uM in presence of 0.1 uM doxorubicin by MTT assay; assay type: functional
HCT-116 [6] = assay: Inhibition of colony formation in human HCT-116 cells at 1 uM in presence of 100 nM doxorubicin; assay type: functional, cell-based
MCF7 [7] = assay: Synergistic antiproliferative activity against human MCF7 cells assessed as combination index at 3.1 uM in presence of 0.1 uM doxorubicin by MTT assay; assay type: functional
HepG2 [8] = assay: Synergistic antiproliferative activity against Doxorubicin-resistant human HepG2 cells assessed as combination index at 12.5 uM in presence of 0.1 uM doxorubicin by MTT assay; assay type: functional
HL-60 [9] = assay: Synergistic antiproliferative activity against human HL-60 cells assessed as combination index at 12.5 uM in presence of 0.1 uM doxorubicin by MTT assay; assay type: functional
[10] = Toxicity in BALB/c nude mouse xenografted with human HL-60 cells assessed as RDW-SD level at 100 mg/kg, po qd for 16 days (reference value: 34 fL); assay type: organism-based; conditions: in vivo, 384 h, time 16 day
MDA-MB-231 [11] = assay: Synergistic antiproliferative activity against human MDA-MB-231 cells assessed as inhibition of cell growth in presence of 100 nM doxorubicin by MTT assay; assay type: functional, cell-based
[12] = Tmax in Sprague-Dawley rat at 5 mg/kg, po; assay type: ADME, organism-based; conditions: in vivo
HCT-116 [13] = assay: Induction of apoptosis in human HCT-116 cells assessed as necrotic cells at 1 uM incubated for 24 hrs by AnnexinV-FITC/PI staining based flow cytometry (reference value: 0.031%); assay type: functional
[14] = Half life in Sprague-Dawley rat at 5 mg/kg, po; assay type: ADME, organism-based; conditions: in vivo
HCT-116 [15] = assay: Induction of cell cycle arrest in human HCT-116 cells assessed as increase in accumulation of cells at G2/M phase at 1 uM incubated for 24 hrs in presence of 100 nM doxorubicin by PI staining based flow cytometry; assay type: functional
[16] = Toxicity in BALB/c nude mouse xenografted with human HL-60 cells assessed as liver morphological alterations at 100 mg/kg, po qd for 16 days by Hematoxylin and Eosin staining based analysis; assay type: organism-based; conditions: in vivo, 384 h, time 16 day
MCF7 [17] = assay: Synergistic antiproliferative activity against human MCF7 cells assessed as combination index at 12.5 uM in presence of 0.1 uM doxorubicin by MTT assay; assay type: functional
[18] = Toxicity in BALB/c nude mouse xenografted with human HL-60 cells assessed as effect on body weight at 100 mg/kg, po qd for 16 days co-administered with doxorubicin; assay type: organism-based; conditions: in vivo, 384 h, time 16 day
[19] = Toxicity in BALB/c nude mouse xenografted with human HL-60 cells assessed as MCH level at 100 mg/kg, po qd for 16 days (reference value: 14.1 pg); assay type: organism-based; conditions: in vivo, 384 h, time 16 day
[20] = Toxicity in BALB/c nude mouse xenografted with human HL-60 cells assessed as serum granulocytes content at 100 mg/kg, po qd for 16 days (reference value: 0.51X10^9/L); assay type: organism-based; conditions: in vivo, 384 h, time 16 day
MDA-MB-231 [21] = assay: Synergistic antiproliferative activity against human MDA-MB-231 cells assessed as combination index at 6.25 uM in presence of 0.1 uM doxorubicin by MTT assay; assay type: functional
MDA-MB-231 [22] = assay: Synergistic antiproliferative activity against human MDA-MB-231 cells assessed as combination index at 100 uM in presence of 0.1 uM doxorubicin by MTT assay; assay type: functional
[23] = Toxicity in BALB/c nude mouse xenografted with human HL-60 cells assessed as serum RBC content at 100 mg/kg, po qd for 16 days (reference value: 10.375X10^12/L); assay type: organism-based, Erythrocyte; conditions: in vivo, 384 h, time 16 day
[24] = Toxicity in BALB/c nude mouse xenografted with human HL-60 cells assessed as serum lymphocytes content at 100 mg/kg, po qd for 16 days (reference value: 2.65X10^9/L); assay type: organism-based; conditions: in vivo, 384 h, time 16 day
MCF7 [25] = assay: Synergistic antiproliferative activity against human MCF7 cells assessed as inhibition of cell growth in presence of 100 nM doxorubicin by MTT assay; assay type: functional, cell-based
[26] = Toxicity in BALB/c nude mouse xenografted with human HL-60 cells assessed as serum monocytes content at 100 mg/kg, po qd for 16 days (reference value: 12.2%); assay type: organism-based; conditions: in vivo, 384 h, time 16 day
[27] = Half life in rat liver microsomes; assay type: ADME, Microsome
MCF7 [28] = assay: Synergistic antiproliferative activity against human MCF7 cells assessed as combination index at 100 uM in presence of 0.1 uM doxorubicin by MTT assay; assay type: functional
HepG2 [29] = assay: Synergistic antiproliferative activity against Doxorubicin-resistant human HepG2 cells assessed as inhibition of cell growth in presence of 100 nM doxorubicin by MTT assay; assay type: functional, cell-based
MDA-MB-231 [30] = assay: Additive antiproliferative activity against human MDA-MB-231 cells assessed as combination index at 200 uM in presence of 0.1 uM doxorubicin by MTT assay; assay type: functional
[31] = molecular target: Phosphatidylinositol 4,5-bisphosphate 3-kinase catalytic subunit beta isoform (Homo sapiens, UniProt P42338); assay: Inhibition of human PI3Kbeta by ADP-Glo assay; assay type: toxicity
Sequence of Phosphatidylinositol 4,5-bisphosphate 3-kinase catalytic subunit beta isoform (P42338 whole entry, canonical isoform): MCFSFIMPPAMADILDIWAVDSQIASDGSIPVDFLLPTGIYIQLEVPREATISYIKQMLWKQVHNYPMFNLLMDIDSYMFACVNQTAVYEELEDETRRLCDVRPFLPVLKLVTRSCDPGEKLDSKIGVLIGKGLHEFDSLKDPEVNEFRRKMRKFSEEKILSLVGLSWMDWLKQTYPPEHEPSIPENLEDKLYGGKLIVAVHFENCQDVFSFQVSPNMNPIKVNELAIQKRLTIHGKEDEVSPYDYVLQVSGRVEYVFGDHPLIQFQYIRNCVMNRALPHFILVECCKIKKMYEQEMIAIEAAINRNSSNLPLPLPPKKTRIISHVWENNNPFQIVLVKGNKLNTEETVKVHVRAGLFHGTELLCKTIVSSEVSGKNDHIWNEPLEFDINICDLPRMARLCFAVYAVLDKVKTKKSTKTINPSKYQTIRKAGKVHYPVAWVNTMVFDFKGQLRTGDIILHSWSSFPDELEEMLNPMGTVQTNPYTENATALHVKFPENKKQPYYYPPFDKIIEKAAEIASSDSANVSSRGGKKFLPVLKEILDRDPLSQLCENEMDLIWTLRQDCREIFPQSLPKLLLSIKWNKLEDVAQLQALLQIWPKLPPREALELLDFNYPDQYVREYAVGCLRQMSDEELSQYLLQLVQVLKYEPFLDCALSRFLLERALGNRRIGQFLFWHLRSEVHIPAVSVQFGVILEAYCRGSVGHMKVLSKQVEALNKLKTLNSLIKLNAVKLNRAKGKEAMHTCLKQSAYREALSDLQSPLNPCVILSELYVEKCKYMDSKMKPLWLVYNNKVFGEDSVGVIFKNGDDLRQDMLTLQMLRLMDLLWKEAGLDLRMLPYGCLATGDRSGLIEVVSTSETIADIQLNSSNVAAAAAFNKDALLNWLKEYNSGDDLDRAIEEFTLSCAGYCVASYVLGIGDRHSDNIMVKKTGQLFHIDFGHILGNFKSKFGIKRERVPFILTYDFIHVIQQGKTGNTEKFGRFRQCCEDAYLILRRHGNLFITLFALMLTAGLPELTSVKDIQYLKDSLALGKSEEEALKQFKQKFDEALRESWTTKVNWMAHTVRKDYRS

HepG2 [32] = assay: Synergistic antiproliferative activity against Doxorubicin-resistant human HepG2 cells assessed as combination index at 50 uM in presence of 0.1 uM doxorubicin by MTT assay; assay type: functional
MCF7 [33] = assay: Synergistic antiproliferative activity against human MCF7 cells assessed as combination index at 200 uM in presence of 0.1 uM doxorubicin by MTT assay; assay type: functional
MCF7 [34] = assay: Synergistic antiproliferative activity against human MCF7 cells assessed as combination index at 25 uM in presence of 0.1 uM doxorubicin by MTT assay; assay type: functional
[35] = molecular target: Phosphatidylinositol 4,5-bisphosphate 3-kinase catalytic subunit gamma isoform (Homo sapiens, UniProt P48736); assay: Inhibition of human PI3Kgamma by ADP-Glo assay; assay type: toxicity
Sequence of Phosphatidylinositol 4,5-bisphosphate 3-kinase catalytic subunit gamma isoform (P48736 whole entry, canonical isoform): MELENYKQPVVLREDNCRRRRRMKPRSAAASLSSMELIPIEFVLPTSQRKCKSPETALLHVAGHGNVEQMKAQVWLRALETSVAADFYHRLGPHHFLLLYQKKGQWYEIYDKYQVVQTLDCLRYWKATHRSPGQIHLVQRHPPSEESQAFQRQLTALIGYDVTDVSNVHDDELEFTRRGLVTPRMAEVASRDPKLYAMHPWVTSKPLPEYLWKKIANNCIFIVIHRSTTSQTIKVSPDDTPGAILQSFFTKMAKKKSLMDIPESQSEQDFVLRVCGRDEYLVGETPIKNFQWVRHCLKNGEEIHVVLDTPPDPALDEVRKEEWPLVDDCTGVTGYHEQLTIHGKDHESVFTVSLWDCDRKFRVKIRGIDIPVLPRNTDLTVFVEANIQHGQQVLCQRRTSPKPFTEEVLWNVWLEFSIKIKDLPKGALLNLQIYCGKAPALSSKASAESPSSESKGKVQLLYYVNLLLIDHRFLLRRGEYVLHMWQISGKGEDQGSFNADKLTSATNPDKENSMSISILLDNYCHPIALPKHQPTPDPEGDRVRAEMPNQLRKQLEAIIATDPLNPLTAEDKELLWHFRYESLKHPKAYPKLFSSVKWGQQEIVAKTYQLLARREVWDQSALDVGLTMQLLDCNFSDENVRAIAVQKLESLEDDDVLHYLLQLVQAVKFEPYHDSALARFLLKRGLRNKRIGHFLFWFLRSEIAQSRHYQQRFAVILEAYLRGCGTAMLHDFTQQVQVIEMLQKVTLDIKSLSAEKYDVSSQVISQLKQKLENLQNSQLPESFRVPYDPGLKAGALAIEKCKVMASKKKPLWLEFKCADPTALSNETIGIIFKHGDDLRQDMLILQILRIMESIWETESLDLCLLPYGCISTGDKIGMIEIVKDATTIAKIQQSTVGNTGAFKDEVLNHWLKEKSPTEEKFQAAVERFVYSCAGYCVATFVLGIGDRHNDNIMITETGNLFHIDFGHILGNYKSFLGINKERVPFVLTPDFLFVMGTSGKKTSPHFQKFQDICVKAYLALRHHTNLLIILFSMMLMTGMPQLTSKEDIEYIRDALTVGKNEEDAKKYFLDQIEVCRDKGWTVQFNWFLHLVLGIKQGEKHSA

[36] = Kinetic solubility of the compound in phosphate-buffered solution at pH 7.4 incubated for 24 hrs by HPLC-MS/MS analysis; assay type: physicochemical; conditions: phosphate buffer, read-out: Kinetic_solubility
HepG2 [37] = assay: Synergistic antiproliferative activity against Doxorubicin-resistant human HepG2 cells assessed as combination index at 25 uM in presence of 0.1 uM doxorubicin by MTT assay; assay type: functional
HL-60 [38] = assay: Synergistic antiproliferative activity against human HL-60 cells assessed as combination index at 25 uM in presence of 0.1 uM doxorubicin by MTT assay; assay type: functional
HL-60 [39] = assay: Synergistic antiproliferative activity against human HL-60 cells assessed as inhibition of cell growth in presence of 100 nM doxorubicin by MTT assay; assay type: functional, cell-based

Cc1cc2ncnn2cc1Nc1ncc2c(n1)N(C1CCOCC1)CC(=O)N2C
CI (MDA-MB-231 [1]): 0.3617
Activity [2]: Non-Toxic
MRT inf [3]: 2.29 h
fraction unbound [4]: 0.859
CI (MDA-MB-231 [5]): 0.474
inhibition (HCT-116 [6]): Active
CI (MCF7 [7]): 0.05143
CI (HepG2 [8]): 0.04474
CI (HL-60 [9]): 0.06945
Activity [10]: 36 fL
Activity (MDA-MB-231 [11]): Active
Tmax [12]: 0.42 h
Activity (HCT-116 [13]): 0.015%
half-life [14]: 1.59 h
Activity (HCT-116 [15]): 57.27%
Activity [16]: Non-Toxic
CI (MCF7 [17]): 0.06131
Activity [18]: Non-Toxic
Activity [19]: 14.2 pg
Activity [20]: 0.49 10^9/L
CI (MDA-MB-231 [21]): 0.3693
CI (MDA-MB-231 [22]): 0.9806
Activity [23]: 10.315 10^12/L
Activity [24]: 3.2 10^9/L
Activity (MCF7 [25]): Active
Activity [26]: 12.15%
half-life [27]: > 2.42 h
CI (MCF7 [28]): 0.2764
Activity (HepG2 [29]): Active
CI (MDA-MB-231 [30]): 1.006
IC50 [31]: 830 nM
CI (HepG2 [32]): 0.09496
CI (MCF7 [33]): 0.2697
CI (MCF7 [34]): 0.06966
IC50 [35]: 281 nM
solubility kinetic at 24 h [36]: 80 µg/mL (≈ 203 µM)
CI (HepG2 [37]): 0.07268
CI (HL-60 [38]): 0.1382
IC50 (HL-60 [39]): < 100 nM
